# Source: patent US12168012B2, “NLRP3 inflammasome inhibitors” (Novartis AG, priority 2018, dated 2024)
# Counter-ions that a name gives are not always drawn.
# Key:
# NLRP3 inflammasome = assay: IL-1β secretion assay; format: cell-based; details: Homo sapiens, THP-1, 3 h, PMA-differentiated THP-1 cells, 15 μM nigericin, HTRF
# Protocol: 10 μL supernatant was removed, and IL-1p levels were monitored using an HTRF assay (CisBio, #62IL1PEC) according to manufacturers' instructions. Viability and pyroptosis was monitored with the addition of PrestoBlue cell viability reagent (Life Technologies, #A13261) directly to the cell culture plate.
# (§1) IC50 values were calculated from the plot of percentage of inhibition versus the inhibitor concentration by a logistics fit according to: y=A2+(A1−A2)/(1+(x/IC50)^p) where y is the %-inhibition at the inhibitor concentration, x. A1 is the lowest inhibition value, i.e. 0%, and A2 the maximum inhibition value, i.e. 100%. The exponent, p, is the Hill coefficient. The curve fitting was conducted with an internally developed software suite.
# NLRP3-dependent IL-1β secretion was stimulated in PMA-differentiated THP-1 cells by the addition of nigericin, and cytokines were measured in the […] after 3 hours. As discussed above, activation of the NLRP3 inflammasome requires both an NF-kB-dependent priming step and the addition of a NLRP3 activator.
# [1] = tested on: NF-kB-dependent TNF-α secretion; assay: TNF-α secretion assay (counterscreen); format: cell-based; details: Homo sapiens; THP-1 cells, Pam3CSK4-stimulated, 3 hours, HTRF
# Protocol: Monocytic THP-1 cells were maintained according to providers' instructions in RPMI media as described above. Undifferentiated cells were plated at 50,000 cells per well in a 384-well flat-bottom cell culture plates (Greiner, #781986), and allowed to rest overnight. Experimental compounds were prepared and added as described above. TNF-α secretion was triggered by the addition of either 1 μg/mL LPS (Sigma, #L4391) or 100 ng/mL Pam3CSK4 (Invivogen, #tlrl-pms) depending on the experiment, and cells were incubated for 3 hours. 10 μL supernatant was removed, and TNF-α levels were monitored using an HTRF assay (CisBio, #62TNFPEC) according to manufacturers' instructions. Viability was monitored as described above.
# as §1, with “suite. […]” for “suite.”
SMILES,IC50 (NLRP3 inflammasome) [µM],IC50 [1] [µM]
"CC(C)c1nn(CC(=O)Nc2ccncn2)c(=O)c2cc3sc(Cl)cc3n12 [Ex 1, 2-(2-Chloro-5-isopropyl-8-oxothieno[2′,3′:4,5]pyrrolo[1,2-d][1,2,4]triazin-7(8H)-yl)-N-(pyrimidin-4-yl)acetamide]",0.0202,> 100
"CC(O)c1nn(CC(=O)Nc2ccncn2)c(=O)c2cc3sc(Cl)cc3n12 (stereo not shown) [Ex 3, 2-(2-Chloro-5-(1-hydroxyethyl)-8-oxothieno[2′,3′:4,5]pyrrolo[1,2-d][1,2,4]triazin-7(8H)-yl)-N-(pyrimidin-4-yl)acetamide]",0.228,> 100
"O=C(Cn1nc(C2CC2)n2c(cc3scnc32)c1=O)Nc1cccnc1 [Ex 4, 2-(5-Cyclopropyl-8-oxothiazolo[5′,4′:4,5]pyrrolo[1,2-d][1,2,4]triazin-7(8H)-yl)-N-(pyridin-3-yl)acetamide]",0.22,> 100
"CC(C)c1nn(CC(=O)Nc2ccncn2)c(=O)c2cc3sc(F)cc3n12 [Ex 6, 2-(2-Fluoro-5-isopropyl-8-oxothieno[2′,3′:4,5]pyrrolo[1,2-d][1,2,4]triazin-7(8H)-yl)-N-(pyrimidin-4-yl)acetamide]",0.0065,> 100
"Cc1cc2c(cc3c(=O)n(CC(=O)Nc4cccnc4)nc(C(C)C)n32)s1 [Ex 7, 2-(5-Isopropyl-2-methyl-8-oxothieno[2′,3′:4,5]pyrrolo[1,2-d][1,2,4]triazin-7(8H)-yl)-N-(pyridin-3-yl)acetamide]",0.254,> 100
"CC(C)(O)c1nn(CC(=O)Nc2cccnc2)c(=O)c2cc3sc(Cl)cc3n12 [Ex 8, 2-(2-Chloro-5-(2-hydroxypropan-2-yl)-8-oxothieno[2′,3′:4,5]pyrrolo[1,2-d][1,2,4]triazin-7(8H)-yl)-N-(pyridin-3-yl)acetamide]",0.0874,> 100
"CC(C)(O)c1nn(CC(=O)Nc2ccncn2)c(=O)c2cc3sc(Cl)cc3n12 [Ex 9, 2-(2-Chloro-5-(2-hydroxypropan-2-yl)-8-oxothieno[2′,3′:4,5]pyrrolo[1,2-d][1,2,4]triazin-7(8H)-yl)-N-(pyrimidin-4-yl)acetamide]",0.0079,> 100
"CC(C)c1nn(CC(=O)N[C@@H]2CCC(=O)NC2)c(=O)c2cc3sc(Cl)cc3n12 [Ex 19, (R)-2-(2-Chloro-5-isopropyl-8-oxothieno[2′,3′:4,5]pyrrolo[1,2-d][1,2,4]triazin-7(8H)-yl)-N-(6-oxopiperidin-3-yl)acetamide]",0.0486,> 100
"CC(C)c1nn(CC(=O)NCC(C)(C)CO)c(=O)c2cc3sc(Cl)cc3n12 [Ex 20, 2-(2-Chloro-5-isopropyl-8-oxothieno[2′,3′:4,5]pyrrolo[1,2-d][1,2,4]triazin-7(8H)-yl)-N-(3-hydroxy-2,2-dimethylpropyl)acetamide]",0.0598,> 100
"CC(C)c1nn(CC(=O)N[C@@H]2CCC[C@@H](O)C2)c(=O)c2cc3sc(Cl)cc3n12 [Ex 21, 2-(2-Chloro-5-isopropyl-8-oxothieno[2′,3′:4,5]pyrrolo[1,2-d][1,2,4]triazin-7(8H)-yl)-N-((1R,3R)-3-hydroxycyclohexyl)acetamide]",0.0325,> 100
"CC(C)c1nn(CC(=O)NC2CC3(COC3)C2)c(=O)c2cc3sc(Cl)cc3n12 [Ex 24, 2-(2-Chloro-5-isopropyl-8-oxothieno[2′,3′:4,5]pyrrolo[1,2-d][1,2,4]triazin-7(8H)-yl)-N-(2-oxaspiro[3.3]heptan-6-yl)acetamide]",0.0395,> 100
"CC1(C)CC(NC(=O)Cn2nc(C(C)(C)O)n3c(cc4sc(Cl)cc43)c2=O)C1 [Ex 25, 2-(2-Chloro-5-(2-hydroxypropan-2-yl)-8-oxothieno[2′,3′:4,5]pyrrolo[1,2-d][1,2,4]triazin-7(8H)-yl)-N-(3,3-dimethylcyclobutyl)acetamide]",0.0785,> 100
"CC(C)(O)c1nn(CC(=O)NC2CC3(COC3)C2)c(=O)c2cc3sc(Cl)cc3n12 [Ex 26, 2-(2-Chloro-5-(2-hydroxypropan-2-yl)-8-oxothieno[2′,3′:4,5]pyrrolo[1,2-d][1,2,4]triazin-7(8H)-yl)-N-(2-oxaspiro[3.3]heptan-6-yl)acetamide]",0.0464,> 100
"CC(C)c1nn(CC(=O)N[C@@H]2CCC[C@@](C)(O)C2)c(=O)c2cc3sc(Cl)cc3n12 [Ex 27, 2-(2-Chloro-5-isopropyl-8-oxothieno[2′,3′:4,5]pyrrolo[1,2-d][1,2,4]triazin-7(8H)-yl)-N-((1R,3R)-3-hydroxy-3-methylcyclohexyl)acetamide]",0.018,> 100
"CC(C)c1nn(CC(=O)N[C@@H]2CCCN(CCF)C2)c(=O)c2cc3sc(Cl)cc3n12 [Ex 28, (R)-2-(2-Chloro-5-isopropyl-8-oxothieno[2′,3′:4,5]pyrrolo[1,2-d][1,2,4]triazin-7(8H)-yl)-N-(1-(2-fluoroethyl)piperidin-3-yl)acetamide]",0.0133,> 100
"CN1C[C@H](NC(=O)Cn2nc(C(C)(C)O)n3c(cc4sc(Cl)cc43)c2=O)CCC1=O [Ex 29, (R)-2-(2-Chloro-5-(2-hydroxypropan-2-yl)-8-oxothieno[2′,3′:4,5]pyrrolo[1,2-d][1,2,4]triazin-7(8H)-yl)-N-(1-methyl-6-oxopiperidin-3-yl)acetamide]",0.0357,> 100
"CC(C)(O)c1nn(CC(=O)N[C@@H]2CCCN(CCF)C2)c(=O)c2cc3sc(Cl)cc3n12 [Ex 30, (R)-2-(2-Chloro-5-(2-hydroxypropan-2-yl)-8-oxothieno[2′,3′:4,5]pyrrolo[1,2-d][1,2,4]triazin-7(8H)-yl)-N-(1-(2-fluoroethyl)piperidin-3-yl)acetamide]",0.0525,> 100
"CC(C)c1nn(CC(=O)N[C@@H]2CCCNC2)c(=O)c2cc3sc(F)cc3n12 [Ex 31, (R)-2-(2-Fluoro-5-isopropyl-8-oxothieno[2′,3′:4,5]pyrrolo[1,2-d][1,2,4]triazin-7(8H)-yl)-N-(piperidin-3-yl)acetamide hydrochloride]",0.0905,> 100
"CC(C)c1nn(CC(=O)N[C@@H]2CCCN(C)C2)c(=O)c2cc3sc(F)cc3n12 [Ex 32, (R)-2-(2-Fluoro-5-isopropyl-8-oxothieno[2′,3′:4,5]pyrrolo[1,2-d][1,2,4]triazin-7(8H)-yl)-N-(1-methylpiperidin-3-yl)acetamide]",0.0076,> 100
"CC(C)c1nn(CC(=O)N[C@@H]2CCC(=O)NC2)c(=O)c2cc3sc(F)cc3n12 [Ex 33, (R)-2-(2-Fluoro-5-isopropyl-8-oxothieno[2′,3′:4,5]pyrrolo[1,2-d][1,2,4]triazin-7(8H)-yl)-N-(6-oxopiperidin-3-yl)acetamide]",0.108,> 100
"O=C(Cn1nc(C2CC2)n2c(cc3sc(F)cc32)c1=O)N[C@@H]1CCCNC1 [Ex 34, (R)-2-(5-Cyclopropyl-2-fluoro-8-oxothieno[2′,3′:4,5]pyrrolo[1,2-d][1,2,4]triazin-7(8H)-yl)-N-(piperidin-3-yl)acetamide]",0.0803,> 100
"CN1CCC[C@@H](NC(=O)Cn2nc(C3CC3)n3c(cc4sc(F)cc43)c2=O)C1 [Ex 35, (R)-2-(5-Cyclopropyl-2-fluoro-8-oxothieno[2′,3′:4,5]pyrrolo[1,2-d][1,2,4]triazin-7(8H)-yl)-N-(1-methylpiperidin-3-yl)acetamide]",0.0481,40
"O=C(Cn1nc(C2CC2)n2c(cc3sc(Cl)cc32)c1=O)N[C@@H]1CCCNC1 [Ex 36, (R)-2-(2-Chloro-5-cyclopropyl-8-oxothieno[2′,3′:4,5]pyrrolo[1,2-d][1,2,4]triazin-7(8H)-yl)-N-(piperidin-3-yl)acetamide hydrochloride]",0.109,> 100
"CN1CCC[C@@H](NC(=O)Cn2nc(C3CC3)n3c(cc4sc(Cl)cc43)c2=O)C1 [Ex 37, (R)-2-(2-Chloro-5-cyclopropyl-8-oxothieno[2′,3′:4,5]pyrrolo[1,2-d][1,2,4]triazin-7(8H)-yl)-N-(1-methylpiperidin-3-yl)acetamide]",0.101,> 100
"Cc1cc2c(cc3c(=O)n(CC(=O)N[C@@H]4CCCNC4)nc(C(C)C)n32)s1 [Ex 38, (R)-2-(5-Isopropyl-2-methyl-8-oxothieno[2′,3′:4,5]pyrrolo[1,2-d][1,2,4]triazin-7(8H)-yl)-N-(piperidin-3-yl)acetamide]",0.088,> 100
"Cc1cc2c(cc3c(=O)n(CC(=O)N[C@@H]4CCC(=O)NC4)nc(C(C)C)n32)s1 [Ex 39, (R)-2-(5-Isopropyl-2-methyl-8-oxothieno[2′,3′:4,5]pyrrolo[1,2-d][1,2,4]triazin-7(8H)-yl)-N-(6-oxopiperidin-3-yl)acetamide]",0.54,> 100
